Tested on: 60 human tumor cell lines (NCI60)
Test: NCI60 anticancer drug screen, whole panel
Type: cell-based
Conditions: 10 μM, 48 h
Description: The aminocaproate-substituted corrole Complex 3 was submitted to NCI for cytotoxic screening at a single high dose (10−5M) in a panel of 60 human tumor cell lines (NCI60). Details of the cytotoxicity assessment in the NCI anticancer drug screen have been described previously, in Monks A, et al. (1991) Feasibility of a high-flux anticancer drug screen using a diverse panel of cultured human tumor cell lines. J Natl Cancer Inst 83(11):757-766, this reference being incorporated by reference for these teachings.
In view of the promising results observed for carboxylated corroles, Complex 3 was selected for expanded cell screening to uncover additional susceptible cancer cell lines. The cytotoxic activity of Complex 3 was tested at a dose of 10^−5 M against 60 human cancer cell lines representing nine distinct tumor types in the anticancer screening program of the National Cancer Institute (NCI). The in vitro parameters for cytotoxicity, growth percent, and lethality were obtained for Complex 3 and reported as a mean graph of the percent growth of treated cells (FIG. 7). Bars in the mean graph depict the deviation of individual tumor cell lines from the overall mean value for all cells tested. Bars that project to the right of the mean represent cell lines that are more sensitive to Complex 3, whereas cell lines less sensitive to the compound display bars that project to the left. […]

Compound: O=C(O)CCCCCNc1c(F)c(F)c(C2=C3C=CC4=[N+]3[Ga-]35[n]6c2ccc6C(c2c(F)c(F)c(F)c(F)c2F)=c2ccc([n]23)=C(c2c(F)c(F)c(F)c(F)c2F)c2ccc4[n]25)c(F)c1F (centres unmarked) [Complex 3]
- activity against all NCI60 cell lines derived from nine tumor types: highly active
- average growth inhibition (NCI60 panel): 70%
